Experiments:
Test in all cases: Post-emergence test experiment (greenhouse pot, spray at 2-3 leaf stage)
Type in all cases: in vivo
Details in all cases: 1000 g/ha; post-emergence spray at 2-3 leaf stage; assessed after 3 weeks; fresh weight inhibition rate
Abutilon theophrasti = test system: Abutilon theophrasti
Outline: (§1)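 Activity graded levels 0-5 by fresh-weight inhibition (level 5 above 85%, level 0 below 5%), assessed 3 weeks after treatment. Plants grown in greenhouse pots were sprayed post-emergence at 2-3 leaves using acetone/tween-80 solutions with methyl oleate synergist (1.5 L/ha).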

Digitaria sanguinalis = test system: Digitaria sanguinalis
Outline: as §1

Echinochloa crusgalli = test system: Echinochloa crusgalli
Outline: as §1

Galium spurium = test system: Galium spurium
Outline: as §1

Monochoria vaginalis = test system: Monochoria vaginalis
Outline: as §1

Row | Structure (SMILES) | Activity level (growth inhibition rate) Abutilon theophrasti (Abutilon theophrasti) | Activity level (growth inhibition rate) Digitaria sanguinalis (Digitaria sanguinalis) | Activity level (growth inhibition rate) Echinochloa crusgalli (Echinochloa crusgalli) | Activity level (growth inhibition rate) Galium spurium (Galium spurium) | Activity level (growth inhibition rate) Monochoria Vaginalis (Monochoria vaginalis)
1 | CC(Oc1nc(F)c(Cl)c(N)c1Cl)C(=O)OCc1ccc2c(ccn2C)c1 (stereo not drawn) [Compound 171] | 5 (Level 5: the growth inhibition rate is greater than 85%) | 5 (Level 5: the growth inhibition rate is greater than 85%) | 5 (Level 5: the growth inhibition rate is greater than 85%) | 5 (Level 5: the growth inhibition rate is greater than 85%) | 5 (Level 5: the growth inhibition rate is greater than 85%)
2 | CC(Oc1nc(F)c(Cl)c(N)c1Cl)C(=O)OCc1ccoc1 (stereo not drawn) [Compound 213] | 5 (Level 5: the growth inhibition rate is greater than 85%) | 5 (Level 5: the growth inhibition rate is greater than 85%) | 5 (Level 5: the growth inhibition rate is greater than 85%) | 5 (Level 5: the growth inhibition rate is greater than 85%) | 5 (Level 5: the growth inhibition rate is greater than 85%)
3 | CC(Oc1nc(F)c(Cl)c(N)c1Cl)C(=O)SCc1ccc(Cl)cc1 (stereo not drawn) [Compound 228] | 5 (Level 5: the growth inhibition rate is greater than 85%) | 5 (Level 5: the growth inhibition rate is greater than 85%) | 5 (Level 5: the growth inhibition rate is greater than 85%) | 5 (Level 5: the growth inhibition rate is greater than 85%) | 5 (Level 5: the growth inhibition rate is greater than 85%)
4 | CC(Oc1nc(F)c(Cl)c(N)c1Cl)C(=O)OCc1cccnn1 (stereo not drawn) [Compound 122] | 5 (Level 5: the growth inhibition rate is greater than 85%) | 5 (Level 5: the growth inhibition rate is greater than 85%) | 5 (Level 5: the growth inhibition rate is greater than 85%) | 5 (Level 5: the growth inhibition rate is greater than 85%) | 5 (Level 5: the growth inhibition rate is greater than 85%)
5 | CC(Oc1nc(F)c(Cl)c(N)c1Cl)C(=O)SCc1cccc(Br)c1 (stereo not drawn) [Compound 230] | 5 (Level 5: the growth inhibition rate is greater than 85%) | 5 (Level 5: the growth inhibition rate is greater than 85%) | 5 (Level 5: the growth inhibition rate is greater than 85%) | 5 (Level 5: the growth inhibition rate is greater than 85%) | 5 (Level 5: the growth inhibition rate is greater than 85%)
6 | CC(Oc1nc(F)c(Cl)c(N)c1Cl)C(=O)OCn1cncn1 (stereo not drawn) [Compound 136] | 5 (Level 5: the growth inhibition rate is greater than 85%) | 5 (Level 5: the growth inhibition rate is greater than 85%) | 5 (Level 5: the growth inhibition rate is greater than 85%) | 5 (Level 5: the growth inhibition rate is greater than 85%) | 5 (Level 5: the growth inhibition rate is greater than 85%)
7 | CC(Oc1nc(F)c(Cl)c(N)c1Cl)C(=O)SCc1ccsn1 (stereo not drawn) [Compound 161] | 5 (Level 5: the growth inhibition rate is greater than 85%) | 5 (Level 5: the growth inhibition rate is greater than 85%) | 5 (Level 5: the growth inhibition rate is greater than 85%) | 5 (Level 5: the growth inhibition rate is greater than 85%) | 5 (Level 5: the growth inhibition rate is greater than 85%)
8 | CCCc1c(F)nc(OC(C)C(=O)SCc2ccccc2)c(C2CC2)c1N (stereo not drawn) [Compound 14] | 5 (Level 5: the growth inhibition rate is greater than 85%) | 5 (Level 5: the growth inhibition rate is greater than 85%) | 5 (Level 5: the growth inhibition rate is greater than 85%) | 5 (Level 5: the growth inhibition rate is greater than 85%) | 5 (Level 5: the growth inhibition rate is greater than 85%)
9 | CC(Oc1nc(F)c(Cl)c(N)c1Cl)C(=O)OCc1cccc(I)c1 (stereo not drawn) [Compound 78] | 5 (Level 5: the growth inhibition rate is greater than 85%) | 5 (Level 5: the growth inhibition rate is greater than 85%) | 5 (Level 5: the growth inhibition rate is greater than 85%) | 5 (Level 5: the growth inhibition rate is greater than 85%) | 5 (Level 5: the growth inhibition rate is greater than 85%)
10 | CC(Oc1nc(F)c(Cl)c(N)c1Cl)C(=O)OCc1ccc(Br)cc1 (stereo not drawn) [Compound 207] | 5 (Level 5: the growth inhibition rate is greater than 85%) | 5 (Level 5: the growth inhibition rate is greater than 85%) | 5 (Level 5: the growth inhibition rate is greater than 85%) | 5 (Level 5: the growth inhibition rate is greater than 85%) | 5 (Level 5: the growth inhibition rate is greater than 85%)
11 | CC(Oc1nc(F)c(Cl)c(N)c1Cl)C(=O)SCc1cccc(C(C)C)c1 (stereo not drawn) [Compound 71] | 5 (Level 5: the growth inhibition rate is greater than 85%) | 5 (Level 5: the growth inhibition rate is greater than 85%) | 5 (Level 5: the growth inhibition rate is greater than 85%) | 5 (Level 5: the growth inhibition rate is greater than 85%) | 5 (Level 5: the growth inhibition rate is greater than 85%)
12 | CC(Oc1nc(F)c(Cl)c(N)c1Cl)C(=O)OCc1cccc(CC(N)=O)c1 (stereo not drawn) [Compound 101] | 5 (Level 5: the growth inhibition rate is greater than 85%) | 5 (Level 5: the growth inhibition rate is greater than 85%) | 5 (Level 5: the growth inhibition rate is greater than 85%) | 5 (Level 5: the growth inhibition rate is greater than 85%) | 5 (Level 5: the growth inhibition rate is greater than 85%)
13 | CC(Oc1nc(F)c(Cl)c(N)c1Cl)C(=O)OCc1cccs1 (stereo not drawn) [Compound 214] | 5 (Level 5: the growth inhibition rate is greater than 85%) | 5 (Level 5: the growth inhibition rate is greater than 85%) | 5 (Level 5: the growth inhibition rate is greater than 85%) | 5 (Level 5: the growth inhibition rate is greater than 85%) | 5 (Level 5: the growth inhibition rate is greater than 85%)
14 | CC(Oc1nc(F)c(Cl)c(N)c1Cl)C(=O)OCc1cn(C)cn1 (stereo not drawn) [Compound 129] | 5 (Level 5: the growth inhibition rate is greater than 85%) | 5 (Level 5: the growth inhibition rate is greater than 85%) | 5 (Level 5: the growth inhibition rate is greater than 85%) | 5 (Level 5: the growth inhibition rate is greater than 85%) | 5 (Level 5: the growth inhibition rate is greater than 85%)
15 | Cc1nc2cc(COC(=O)C(C)Oc3nc(F)c(Cl)c(N)c3Cl)ccc2o1 (stereo not drawn) [Compound 175] | 5 (Level 5: the growth inhibition rate is greater than 85%) | 5 (Level 5: the growth inhibition rate is greater than 85%) | 5 (Level 5: the growth inhibition rate is greater than 85%) | 5 (Level 5: the growth inhibition rate is greater than 85%) | 5 (Level 5: the growth inhibition rate is greater than 85%)

Reference: patent publication US12049450B2, “Pyridyloxy-carboxylate derivative and preparation method therefor, herbicidal composition, and use” (Qingdao Kingagroot Chemical Compound Co., Ltd., priority 2018, dated 2024)
